This note sets out measurements from PubChem BioAssay AID1996.

A word on the kinetic solubility: it is the concentration staying in solution when a stock, usually in DMSO, is diluted into the medium.

≈ marks a conversion by molar mass, not a printed value.

The conditions of the data set: buffer; pH 7.4; 200.0 µM.
For `CC(=O)Nc1ccc(S(=O)(=O)N(CC(=O)NC2CC2)Cc2ccccc2)cc1`, the solubility (kinetic) was above 60.2 µg/mL.

`COc1cccc(NC(=O)CNCc2ccccc2)c1.Cl` had a solubility (kinetic) above 46 µg/mL. `O=C(c1ccc([N+](=O)[O-])cc1)N1CCN(c2ncccn2)CC1`: the solubility (kinetic) is 46.3 µg/mL (≈ 148 µM). The figure for `Cc1cc(Cl)ccc1OCCCC(=O)NCCCn1ccnc1` is above 50.4 µg/mL; for `Cc1ccc(C(=O)Nc2sc3c(c2C(=O)O)CCCC3)o1` it is above 45.8 µg/mL. As for `Cl.NC(c1ccccc1)c1ccncc1` (centres undefined), the solubility (kinetic) was above 38.6 µg/mL. Next, `CCOc1cc(OCC)cc(C(=O)NCc2ccco2)c1`: 5.5 µg/mL (≈ 19 µM); `CC(C)Oc1ccc(S(=O)(=O)N2CCOCC2)cc1NC(=O)Cc1ccsc1`: 31.8 µg/mL (≈ 74.9 µM); `O=C1NC(=O)N(c2ccccc2)C(=O)/C1=C\c1ccccc1[N+](=O)[O-]`: above 50.6 µg/mL. For `Cl.c1ccc(C2NCCc3ccccc32)cc1` (centres undefined), the kinetic solubility is above 36.9 µg/mL. `Cc1cccc(NC(=O)COC(=O)c2ccccn2)c1` registered a solubility (kinetic) of 34.9 µg/mL (≈ 129 µM). Turning to `CC(=O)c1cc2c(cc1NC(=O)Cc1c(C)noc1C)OCO2`, the solubility (kinetic) is above 47.4 µg/mL. Take `CC(=O)c1ccc(OCCOc2ccc(Cl)c3cccnc23)cc1`: the kinetic solubility is below 0.7 µg/mL. Next, `CCN(CC)S(=O)(=O)c1nnc(NC(=O)c2ccco2)s1`: above 49.6 µg/mL. Regarding `Cc1cccc(NC(=O)c2cnccn2)c1`, the kinetic solubility worked out at 22.1 µg/mL (≈ 104 µM). In turn, `Cc1ccc(SCC(=O)Nc2ccc3c(c2)C(=O)N(C)C3=O)cc1` had a kinetic solubility of 3.2 µg/mL (≈ 9.4 µM). For the compound `Cc1ccc([N+](=O)[O-])cc1N=C1C(=O)Nc2ccccc21`, the kinetic solubility was found to be 37.4 µg/mL (≈ 133 µM).

Regarding `O=C(O)CC1(CC(=O)NCc2csc(-c3cccs3)n2)CCCCC1`, the solubility (kinetic) amounted to 44.9 µg/mL (≈ 119 µM). The compound `O=[N+]([O-])c1cc2c(cc1C=Nc1ccccc1)OCO2` yielded a solubility (kinetic) of 38.1 µg/mL (≈ 141 µM). The figure for `CC(=O)Nc1cccc(NC(=O)Cc2cccs2)c1` is 28.4 µg/mL (≈ 104 µM). Take `COc1ccc(Cl)cc1NC(=O)C(C)N1CCc2ccccc21` (centres undefined): the solubility (kinetic) came out at 1.1 µg/mL (≈ 3.33 µM). The figure for `CC(=O)NC(CC(=O)O)c1ccc([N+](=O)[O-])cc1` (centres undefined) is above 37.8 µg/mL; for `O=C(Cn1ccccc1=O)c1ccc(Cl)cc1` it is 31.4 µg/mL (≈ 127 µM). Next, `COCCNC(=O)c1ccccc1NC(=O)Nc1ccccc1`: above 47 µg/mL; `CCn1c(CNC(=O)C2CCCCC2)cc2ccccc21`: 0.4 µg/mL (≈ 1.41 µM). Next, `COc1ccc2nc(SCC(=O)C(C)(C)C)[nH]c2c1`: 30.9 µg/mL (≈ 111 µM); `COc1ccccc1OCCNC(=O)Nc1cc(F)c(F)cc1Cl`: 0.7 µg/mL (≈ 1.96 µM). Compound `Cc1ccsc1C(=O)OCC(=O)NC1CCCCC1C` (centres undefined) came in with a kinetic solubility of 12 µg/mL (≈ 40.6 µM). Next, `CC(C)N(Cc1ccccc1)C(=O)c1ccc2nsnc2c1`: 38.2 µg/mL (≈ 123 µM).

The compound `CCCCOc1ccc(C(=O)NCCC(=O)NCCCC(=O)OCC)cc1` showed a kinetic solubility above 56.8 µg/mL. `COc1ccc(CCNC(=O)c2cc(=O)c3cc(C)ccc3o2)cc1` showed a solubility (kinetic) of 6.6 µg/mL (≈ 19.6 µM). Next, `COc1ccc2[nH]c(=O)c(CN(C(=O)c3cccnc3)c3cccc(C)c3)cc2c1`: 3.9 µg/mL (≈ 9.76 µM). Next, `O=C(c1ccco1)N1CCN(S(=O)(=O)c2cccc(Cl)c2)CC1`: above 53.2 µg/mL; `CCOC(=O)c1csc(NC(=O)c2ccc(OCC)cc2)n1`: 0.8 µg/mL (≈ 2.5 µM). Compound `O=C(Nc1cccc2ccccc12)NC1CCCCC1` returned a kinetic solubility below 0.3 µg/mL. In turn, `CC(C)c1ccc(NC(=O)c2ccccc2NC(=O)C2CC=CCC2C(=O)O)cc1` (centres undefined) yielded a solubility (kinetic) above 61 µg/mL. Next, `Cc1nc(-c2ccc(NC(=O)Cc3ccccc3)cc2)cs1`: 1 µg/mL (≈ 3.24 µM); `CCCCCNS(=O)(=O)c1cc2c3c(c1)CCC(=O)N3CCC2`: 45.5 µg/mL (≈ 135 µM); `O=[N+]([O-])c1ccc(-c2nc(-c3ccncc3)no2)cc1`: 1.3 µg/mL (≈ 4.85 µM). Next, `CC(=O)N1c2ccc(Cl)cc2C2OCCC2C1c1ccco1` (centres undefined): 42.2 µg/mL (≈ 133 µM); `CC1CCCCN1C(=O)C1COc2ccccc2O1` (centres undefined): 35.5 µg/mL (≈ 136 µM); `O=C(COC(=O)c1cnccn1)c1ccc(Cl)c([N+](=O)[O-])c1`: above 48.3 µg/mL. On to `Cc1ccc(-n2cnc(N)c2C(=O)c2cccc([N+](=O)[O-])c2)cc1`, for which the solubility (kinetic) came out at 16.6 µg/mL (≈ 51.5 µM). The figure for `Cc1cccc(C)c1NC(=O)CN1C(=O)C(C)Oc2ccccc21` (centres undefined) is 11.6 µg/mL (≈ 35.8 µM); for `CCc1nc2ccccc2c(C(=O)OCC(=O)NC2CCCC2)c1C` it is 48.5 µg/mL (≈ 142 µM); for `COC(=O)C1CSC(c2ccc(Cl)cc2)N1C(=O)c1ccccc1` (centres undefined) it is 34.1 µg/mL (≈ 94.2 µM).

Compound `Cc1ccc(OCCCC(=O)ON=C(N)c2ccccc2C)cc1` registered a kinetic solubility of 19.9 µg/mL (≈ 61 µM). Next, `O=C(CCc1c[nH]c2ccccc12)N1CCCCCCC1`: 17.9 µg/mL (≈ 62.9 µM).

As for `COCCN1C(=O)C(=O)/C(=C(/O)c2ccc(C)cc2)C1c1ccccn1` (centres undefined), the kinetic solubility is above 52.9 µg/mL. The figure for `Nc1ccc2nc(SCC(=O)c3ccccc3)sc2c1` is 1.8 µg/mL (≈ 5.99 µM); for `CC1(C)c2cc(O)ccc2OC1N1CCOCC1` (centres undefined) it is above 37.4 µg/mL; for `CCOc1ccc2cc(S(=O)(=O)N3CCCCC3)ccc2c1` it is below 0.7 µg/mL. The figure for `COc1ccc(OC)c(NC(=O)COC(=O)Cc2ccsc2)c1` is 36.2 µg/mL (≈ 108 µM); for `CN(c1ccccc1)S(=O)(=O)c1ccc2c(c1)OCCO2` it is 43.2 µg/mL (≈ 141 µM). Next, `COc1ccc(C(=O)ON=C2CCN(C)CC2)cc1.Cl`: above 44.8 µg/mL; `Cc1ccccc1CN(C)C(C)C(=O)Nc1ccccc1F` (centres undefined): 8.1 µg/mL (≈ 27 µM); `CCOc1ccc(CN(C)C(=O)Cc2c[nH]c3ccccc23)cc1`: 42 µg/mL (≈ 130 µM).

`COc1ccc(NC(=O)C2C(c3ccccc3)C2(Cl)Cl)cc1` (centres undefined) registered a solubility (kinetic) below 0.7 µg/mL. `O=C(NCCNc1ccccc1[N+](=O)[O-])c1cc(F)c(F)cc1Cl` returned a kinetic solubility of 1.2 µg/mL (≈ 3.37 µM). For `C=CCc1ccccc1OCC(O)CNC(=O)c1ccccc1C(=O)O` (centres undefined), the solubility (kinetic) is above 53.3 µg/mL. Next, `Clc1ccccc1C1Nc2cccc3cccc(c23)N1`: 7.5 µg/mL (≈ 26.7 µM); `Cc1ccc(/C=C/C(=O)NCCc2cccc(Cl)c2)o1`: 5.1 µg/mL (≈ 17.6 µM); `CCc1ccc(NC(=O)CN2CC(c3ccccc3)CC2=O)cc1` (centres undefined): above 48.4 µg/mL.

`Cc1ccccc1-c1ccc(/C=C2/SC(N3CCOCC3)=NC2=O)o1` returned a solubility (kinetic) of 1.4 µg/mL (≈ 3.95 µM). The figure for `O=S(=O)(NCCn1cccc1)c1ccc2ccccc2c1` is 2.1 µg/mL (≈ 6.99 µM).

Take `Cc1ccc(NC(=O)CCc2c(C)[nH]c(=O)c(C#N)c2C)cc1`: the solubility (kinetic) was 12.3 µg/mL (≈ 39.8 µM). Next, `Cc1ccc(NC(=O)CSc2ncccn2)cc1F`: above 41.6 µg/mL; `COC(=O)Cc1c(O)ccn(C2CC2)c1=O`: above 33.5 µg/mL; `CCN(C(=S)Nc1ccc(OC(F)F)cc1)C1CCCCC1`: 5.4 µg/mL (≈ 16.4 µM). Regarding `CCn1c(=O)c2c(nc3n2CCN3c2ccccc2)n(C)c1=O`, the solubility (kinetic) was found to be 3.1 µg/mL (≈ 9.96 µM). The figure for `COC(=O)c1c(SCC(=O)Nc2ccc(C)cc2)nc(=O)[nH]c1C` is 8.4 µg/mL (≈ 24.2 µM); for `O=C(NCCN1CCCCC1)Nc1cccc(F)c1` it is above 39.8 µg/mL; for `O=C(Cc1ccc(F)cc1)Nc1ccccc1N1CCCC1` it is 34.1 µg/mL (≈ 114 µM). Compound `O=C(NCC1CCCO1)c1ccc([N+](=O)[O-])o1` (centres undefined) returned a kinetic solubility above 36 µg/mL.
